Read-outs that look alike come from different tables or passages of the source.
Key:
[1] = test system: Yarrowia lipolytica strain 78-003; assay: FA profile on lipid- versus carbohydrate-containing media; type: cell-based; conditions: for Number of different FAs produced: cells grown 120 h
Description: The hexadecane medium used for FA profile experiments consisted of: 5% v/v hexadecane, 5 g L^−1 yeast nitrogen broth (w/amino acids), 0.5 g L^−1 KH2PO4, and 0.25 g L^−1 Mg2SO4.
Starch medium used for FA profile experiments consisted of: 50 g L^−1 hydrolyzed starch, 2 g L^−1 yeast nitrogen broth (w/amino acids), 0.5 g L^−1 KH2PO4, and 0.25 g L^−1 Mg2SO4. The medium consisted of: 5.4 g L^−1 Tween- 80®, 1.25 g L^−1 (NH4)2SO4, 2.5 g L^−1 KH2PO4, and 0.830 g L^−1 MgSO4. Glucose (5%) medium used for FA profile experiments consisted of: 50 g L^−1 glucose and 3 g L^−1 yeast extract.
Intracellular Lipid Quantification: A modified Bligh and Dyer extraction (Bligh and Dyer 1959) was used to extract lipids from yeast samples. Post-fermentation OP4 culture was withdrawn and aliquoted into pre-weighed 50 ml conical tubes, and tubes were centrifuged, and pellets washed twice with 0.9% NaCl. Pellets were lyophilized overnight using a BT3.3 EL Lyophilizer Tabletop (SP Scientific, USA), weighed, and suspended in a 2:1 v/v chloroform: methanol mixture (5 ml per 50 mg cell dry weight) and sonicated using a Sonic Dismembrator (Fisher Scientific, USA) at 20 kHz, 20% amplitude with pulsing (40 s on, 20 s off for a total working time of 20 min). The chloroform layer was taken and dried under a nitrogen stream. Dried lipids were weighed and derivatized for GC/MS analysis via base-catalyzed esterification with 2.5 ml sodium methoxide (0.1 M) (Milanesio et al. 2013). The reaction was quenched using 200 μL sulfuric acid (>95%), and 2.5 ml hexane was added to each sample, which was then vortexed and centrifuged (5 min at 5000 rpm). 1.5 ml from the top hexane layer was withdrawn for GC/MS analysis.
GC/MS Analysis of Lipid Profile: The FA profile was characterized with an Agilent 7890A gas chromatograph (GC) attached to a 5977A mass spectrometer detector and equipped with an Agilent J&W HP-5 ms UI capillary column ([…]×0.25 mm×[…]). 1 μL samples were injected via an Agilent 7693 Automatic Liquid Sampler in splitless mode with an inlet temperature of 275° C., using helium as the carrier gas at a flow rate of 1 ml min·1. GC oven temperature was held at 60° C. for 1 min, and ramped to 100° C. (rate: 25° C. min·1; hold 1 min). The oven temperature was then increased to 200° C. (rate: 25° C. min^−1; hold 1 min). The oven temperature is then increased to 220° C. (rate: […]; hold 7 min) and then increased to an ending temperature of 300° C. (rate: 25° C. min·1; hold 2 min). A C8-C24 FAME analytical standard was used during sample analyses as an external standard (Sigma Aldrich, USA).

[2] = test system: Yarrowia lipolytica ATCC strain 46482; assay: Intracellular lipid quantification and GC/MS fatty acid profile, OP5 / PCOP5 medium; type: cell-based
Procedure: Fermentation Optimization: For fermentation optimization experiments, pH, inoculum density, osmolarity, or carbon-nitrogen ratio were altered. For pH experiments, OP5 medium pH was adjusted to 4.0, 5.0, or 6.0 using 2.0 M H2SO4 or 4.0 M NaOH. A Corning 320 pH meter (Corning, USA) was used to measure pH. For starting inoculum density experiments, OP5 medium was inoculated at an inoculum density of either 1.0, 3.0, or 6.0. Aliquots of 1 ml were retrieved from Y. lipolytica overnight culture and inoculum density was measured via absorbance at 600 nm. Based on absorbance readings, a volume of cells corresponding to the desired inoculum density was retrieved from the overnight culture and centrifuged at 4,000 rpm. Pelleted cells were washed twice with 50 mM PBS solution and used to inoculate OP5 medium. […] After the selected parameters were altered, shake flask fermentations were carried out for 120 hours, after which cells were processed and biomass and lipid product formation were analyzed as described below. […]
Component media experiments were carried out in 500 ml Erlenmeyer flasks containing 50 ml medium, and Y. lipolytica was inoculated at an inoculum density of 1.0. […] The supernatant was decanted and cells washed twice with 50 mM PBS before being lyophilized, weighed as described above, and lipids extracted and quantified as described in the following section. […]

[3] = Precipitation of polyester-derived medium as a function of pH; type: physicochemical; conditions: PTT1 medium, pH lowered
Procedure: Method: One g of PTT fiber is added to 4 ml of industrial grade ethanol (100 percent ethanol), 1 ml DMSO+0.41 g NaOH (18 percent w/v). The mixture is refluxed with heating […] for 45 −60 min; the reflux allows for heating of the mixture without the ethanol evaporating. The heating process to depolymerize the fibers is as follows: in the first 5 min, no stirring, then stir for 10 min while the fibers crystallize into a white substance. Continue the heating/reflux for the remainder of the prescribed time, then let the system cool. The product will be a bluish, slurry with white crystals; it may also contain residual carpet materials such as polypropylene, calcium carbonate and adhesive. The bluish liquid is the alcohol fraction, containing the alcohol soluble components derived from PTT (propanol, propanal). The white crystals are the TPA. The pH during reflux is 12 to 13 and the pH of slurry is 12-12.5. The slurry can be centrifuged to separate the alcohol and TPA fractions, or the slurry can be added to an aqueous solution adjusted to pH=11 or 12 using NaOH. This latter step is used to make PTT1 medium. In PTT1 medium, the contents as described are added to 1 liter of pH adjusted water, while mixing; the added compounds will not precipitate. The pH of the resulting solution is adjusted to 9.5, typically using HCl and NaOH. 300 mg/l yeast extract is added as a N source. […]

[4] = test system: Yarrowia lipolytica ATCC strain 46482; assay: Y. lipolytica growth (biomass) in OP5 / PCOP5 medium, fermentation optimization; type: cell-based; conditions: added to OP5 medium at 0.75, 1.5 and 3 g L^−1
Procedure: Polypropylene Growth Medium Preparation: OP5 medium is prepared as follows. 125-ml flat-bottomed borosilicate flasks were used to pyrolyze either virgin PP pellets or sheared postconsumer PP in 3 g batches at 540° C. for 195 minutes. The pyrolysis oil (at 15 g L^−1) was combined with: 5.4 g L^−1 Tween-80@, 5 g L^−1 yeast nitrogen base, 2.5 g L^−1 KH2PO4, 2.5 g L^−1 yeast extract, and 1.25 g L^−1 MgSO4 7H2O. The mixture was emulsified with a hand-held food-grade homogenizer. To compensate for the lack of oleic acid as an emulsifier, the homogenization time of OP5 medium was increased from 90 seconds (mixing time for OP4 medium) to 3 minutes. The resulting homogenized medium was autoclaved for 30 min at 121° C. and 15 psi.
Cultures and Fermentation Conditions: Yarrowia lipolytica ATCC strain 46482 was the strain used in this work. Overnight cultures were prepared from 1 ml 60% glycerol stocks of Y. lipolytica stored at −80° C. […] 1 ml aliquots of overnight cultures were withdrawn and used to measure yeast growth via absorbance. […]
Growth Measurements: Y. lipolytica growth measurements were taken spectrophotometrically and gravimetric measurements. Y. lipolytica culture aliquots of 1 ml were withdrawn, and growth was measured via optical density at 600 nm using an Eppendorf 6131 Biophotometer (Eppendorf, USA). […]

Y. lipolytica = conditions: cited from earlier work
[5] = Y. lipolytica growing on the medium, this work
[6] = 250 g L^−1 substrate, strain with Poxl-6 and TGL4 inhibited

O=C[C@H](O)[C@@H](O)[C@H](O)[C@H](O)CO [Glucose, glucose]
C 16:0 in C 16 and C 18 FA profile [1, 5]: 16 percentages | C 16:1 in C 16 and C 18 FA profile [1, 5]: 21 percentages | C 18:0 in C 16 and C 18 FA profile [1, 5]: 7 percentages | C 18:1 in C 16 and C 18 FA profile [1, 5]: 56 percentages | Number of different FAs produced [1]: 10

CCCCCCCC/C=C\CCCCCCCC(=O)OCCOCC(OCCO)C1OCC(OCCO)C1OCCO (centres unmarked) [Tween® 80, polysorbate 80]
Fatty acids produced attributable to carbon from the component ([2]; growth in OP5 medium): 0.4 g/L

O=C(O)c1ccc(C(=O)O)cc1 [TPA, terephthalic acid]
pH at which it precipitates from the medium [3]: around 8.5

[Cl-].[Na+] [NaCl, sodium chloride]
Effect on fatty acid production or intracellular fatty acid content ([2]; added to OP5 medium at 0.75, 1.5 and 3 g L^−1): no significant impact | Effect on Y. lipolytica cell growth [4]: inhibited

CCCCCCCCCCCCCCCC [Hexadecane, hexadecane]
C 16:0 in C 16 and C 18 FA profile [1, 5]: 46 percentages | C 16:1 in C 16 and C 18 FA profile [1, 5]: 15 percentages | C 18:0 in C 16 and C 18 FA profile [1, 5]: 10 percentages | C 18:1 in C 16 and C 18 FA profile [1, 5]: 25 percentages | C 18:2 in C 16 and C 18 FA profile [1, 5]: 4 percentages | Number of different FAs produced [1]: 5

OCC(O)CO [Glycerol, glycerol]
Lipid content (Y. lipolytica; [6]): 31 % CDW | Lipid yield (Y. lipolytica; [6]): 15.5 g/L | C 16:0 in C 16 and C 18 FA profile (Y. lipolytica; source Aggelis 2002): 15 percentages | C 16:1 in C 16 and C 18 FA profile (Y. lipolytica; source Aggelis 2002): 2 percentages | C 18:0 in C 16 and C 18 FA profile (Y. lipolytica; source Aggelis 2002): 11 percentages | C 18:1 in C 16 and C 18 FA profile (Y. lipolytica; source Aggelis 2002): 47 percentages | C 18:2 in C 16 and C 18 FA profile (Y. lipolytica; source Aggelis 2002): 21 percentages | C 16:0 in C 16 and C 18 FA profile (Y. lipolytica; source André et al. 2009): 12 percentages | C 16:1 in C 16 and C 18 FA profile (Y. lipolytica; source André et al. 2009): 11 percentages | C 18:0 in C 16 and C 18 FA profile (Y. lipolytica; source André et al. 2009): 9 percentages | C 18:1 in C 16 and C 18 FA profile (Y. lipolytica; source André et al. 2009): 57 percentages | C 18:2 in C 16 and C 18 FA profile (Y. lipolytica; source André et al. 2009): 11 percentages | C 16:0 in C 16 and C 18 FA profile (Y. lipolytica; source Makri et al. 2010): 13 percentages | C 16:1 in C 16 and C 18 FA profile (Y. lipolytica; source Makri et al. 2010): 17 percentages | C 18:0 in C 16 and C 18 FA profile (Y. lipolytica; source Makri et al. 2010): 6 percentages | C 18:1 in C 16 and C 18 FA profile (Y. lipolytica; source Makri et al. 2010): 55 percentages | C 18:2 in C 16 and C 18 FA profile (Y. lipolytica; source Makri et al. 2010): 7 percentages
